Assay results: patent publication US5041567A, “Antibacterial monic acid derivatives” (Beecham Group plc, priority 1982, dated 1991)
≈ marks a conversion by molar mass, not a printed value. Like-named read-outs stand apart in the source and are kept apart here.

Key:
[1] = tested on: M. suipneumoniae JF 435; assay: MIC against mycoplasma in vitro; type: cell-based; conditions: Mesomycoplasma hyopneumoniae, JF435, 144 h
[2] = tested on: M. suipneumoniae HK(2); assay: MIC against mycoplasma in vitro; type: cell-based; conditions: Mesomycoplasma hyopneumoniae, 144 h
[3] = tested on: M. suipneumoniae J2206/183^b; assay: MIC against mycoplasma in vitro; type: cell-based; conditions: Mesomycoplasma hyopneumoniae, 144 h
[4] = tested on: M. suipneumoniae MS 16; assay: MIC against mycoplasma in vitro; type: cell-based; conditions: Mesomycoplasma hyopneumoniae, MS16, 144 h
[5] = tested on: M. suipneumoniae TAM 6N; assay: MIC against mycoplasma in vitro; type: cell-based; conditions: Mesomycoplasma hyopneumoniae, TAM6N, 144 h
[6] = tested on: M. suipneumoniae ATCC 25095; assay: MIC against mycoplasma in vitro; type: cell-based; conditions: Mesomycoplasma hyopneumoniae, ATCC25095, 144 h
[7] = tested on: M. suipneumoniae NCTC 10110; assay: MIC against mycoplasma in vitro; type: cell-based; conditions: Mesomycoplasma hyopneumoniae, NCTC10110, 144 h
[8] = tested on: M. hyorhinis ATCC 23234; assay: MIC against mycoplasma in vitro; type: cell-based; conditions: Mesomycoplasma hyorhinis, ATCC23234, 144 h
[9] = tested on: M. hyorhinis ATCC 25021; assay: MIC against mycoplasma in vitro; type: cell-based; conditions: Mesomycoplasma hyorhinis, ATCC25021, 144 h
[10] = tested on: M. hyosynoviae ATCC 25591; assay: MIC against mycoplasma in vitro; type: cell-based; conditions: 144 h
[11] = tested on: M. dispar NCTC 10125; assay: MIC against mycoplasma in vitro; type: cell-based; conditions: 144 h
[12] = tested on: M. pneumoniae ATCC 15492; assay: MIC against mycoplasma in vitro; type: cell-based; conditions: Mycoplasmoides pneumoniae, ATCC15492, 144 h; M. pneumoniae ATCC 15492; 6 days, 37° C.; read-out: MIC
[13] = tested on: E. coli ESS; assay: MIC against human bacteria in vitro; type: cell-based; conditions: Escherichia coli; E. coli ESS; 5% chocolated horse blood agar, 18 hours; read-out: MIC
[14] = tested on: P. mirabilis 889; assay: MIC against human bacteria in vitro; type: cell-based; conditions: Proteus mirabilis; P. mirabilis 889; 5% chocolated horse blood agar, 18 hours; read-out: MIC
[15] = tested on: K. aerogenes A; assay: MIC against human bacteria in vitro; type: cell-based; conditions: Klebsiella aerogenes; K. aerogenes A; 5% chocolated horse blood agar, 18 hours; read-out: MIC
[16] = tested on: Pasteurella multocida 1633; assay: MIC against human bacteria in vitro; type: cell-based; conditions: Pasteurella multocida 1633; 5% chocolated horse blood agar, 18 hours; read-out: MIC
[17] = tested on: Neisseria catarrhalis 1502; assay: MIC against human bacteria in vitro; type: cell-based; conditions: Neisseria catarrhalis 1502; 5% chocolated horse blood agar, 18 hours; read-out: MIC
[18] = tested on: Bacillus subtilis 6633; assay: MIC against human bacteria in vitro; type: cell-based
[19] = tested on: Sarcina lutea 8340; assay: MIC against human bacteria in vitro; type: cell-based; conditions: Micrococcus luteus; Sarcina lutea 8340; 5% chocolated horse blood agar, 18 hours; read-out: MIC
[20] = tested on: Staph. aureus Oxford; assay: MIC against human bacteria in vitro; type: cell-based; conditions: Staphylococcus aureus; Staph. aureus Oxford; 5% chocolated horse blood agar, 18 hours; read-out: MIC
[21] = tested on: Staph. aureus Russell; assay: MIC against human bacteria in vitro; type: cell-based; conditions: Staphylococcus aureus; Staph. aureus Russell; 5% chocolated horse blood agar, 18 hours; read-out: MIC
[22] = tested on: Staph. aureus W2827; assay: MIC against human bacteria in vitro; type: cell-based; conditions: Staphylococcus aureus; Staph. aureus W2827; 5% chocolated horse blood agar, 18 hours; read-out: MIC
[23] = tested on: Strep. faecalis I; assay: MIC against human bacteria in vitro; type: cell-based; conditions: Enterococcus faecalis; Strep. faecalis I; 5% chocolated horse blood agar, 18 hours; read-out: MIC
[24] = tested on: Strep. pyogenes R80/421-A; assay: MIC against human bacteria in vitro; type: cell-based; conditions: Streptococcus pyogenes; Strep. pyogenes R80/421-A; 5% chocolated horse blood agar, 18 hours; read-out: MIC
[25] = tested on: Strep. spp. 64/848-C; assay: MIC against human bacteria in vitro; type: cell-based
[26] = tested on: Strep. pneumoniae CN33; assay: MIC against human bacteria in vitro; type: cell-based; conditions: Streptococcus pneumoniae; Strep. pneumoniae CN33; 5% chocolated horse blood agar, 18 hours; read-out: MIC
[27] = tested on: E. coli E1; assay: MIC against veterinary bacteria in vitro; conditions: Escherichia coli, E1, 18 h
Method: (§1) The activity of the compounds of the Examples against various veterinarily important bacteria, was assayed in vitro using two-fold serial dilutions in Diagnostic Sensitivity Test Agar inoculated with 10^4 organisms.

[28] = tested on: S. typhimurium S18; assay: MIC against veterinary bacteria in vitro; conditions: Salmonella enterica, TYPHIMURIUM, 18 h
Method: as §1

[29] = tested on: Bord. bronchiseptica B08; assay: MIC against veterinary bacteria in vitro; conditions: Bordetella bronchiseptica, B08, 18 h
Method: as §1

[30] = tested on: Past. multocida PA2; assay: MIC against veterinary bacteria in vitro; conditions: Pasteurella multocida, PA2, 18 h
Method: as §1

[31] = tested on: Staph. aureus B4 (pen. resistant); assay: MIC against veterinary bacteria in vitro; conditions: Staphylococcus aureus, 18 h
Method: as §1

[32] = tested on: Staph. aureus 152 (pen. sens); assay: MIC against veterinary bacteria in vitro; conditions: Staphylococcus aureus, 18 h
Method: as §1

[33] = tested on: Strep. suis (group D) SPS11; assay: MIC against veterinary bacteria in vitro; conditions: Streptococcus suis, 18 h
Method: as §1

[34] = tested on: Strep. uberis SPU1; assay: MIC against veterinary bacteria in vitro; conditions: Streptococcus uberis, SPU1, 18 h
Method: as §1

[35] = tested on: M. suipneumoniae LABER; assay: MIC against mycoplasma in vitro; type: cell-based; conditions: Mesomycoplasma hyopneumoniae, 144 h

SMILES | MIC [8] [µg/mL] | MIC [9] [µg/mL] | MIC [12] [µg/mL] | MIC [13] [µg/mL] | MIC [14] [µg/mL] | MIC [15] [µg/mL] | MIC [16] [µg/mL] | MIC [17] [µg/mL] | MIC [20] [µg/mL] | MIC [21] [µg/mL] | MIC [22] [µg/mL] | MIC [23] [µg/mL] | MIC [24] [µg/mL] | MIC [26] [µg/mL] | MIC [27] [µg/mL] | MIC [28] [µg/mL] | MIC [29] [µg/mL] | MIC [30] [µg/mL] | MIC [31] [µg/mL] | MIC [32] [µg/mL] | other results
C/C(=C\c1ncc(-c2ccc(CO)cc2)o1)C[C@@H]1OC[C@H](C[C@@H]2O[C@H]2[C@@H](C)[C@H](C)O)[C@@H](O)[C@H]1O [Example 13, 5-p-Hydroxymethylphenyl-2-(1-normon-2-yl) oxazole A] | 0.1 (≈ 0.211 µM) | 0.1 (≈ 0.211 µM) | 0.5 (≈ 1.06 µM) | 2 (≈ 4.22 µM) | > 128 | > 128 | 2 (≈ 4.22 µM) | 4 (≈ 8.45 µM) | 4 (≈ 8.45 µM) | 4 (≈ 8.45 µM) | 4 (≈ 8.45 µM) | > 128 | 4 (≈ 8.45 µM) | 4 (≈ 8.45 µM) | > 80 | > 80 | > 80 | 0.312 (≈ 0.659 µM) | 1.25 (≈ 2.64 µM) | 1.25 (≈ 2.64 µM) | MIC ([1]; M. suipneumoniae JF 435, 6 days, 37° C., read-out: MIC): 0.25 µg/mL (≈ 0.528 µM); MIC ([2]; M. suipneumoniae HK(2), 6 days, 37° C., read-out: MIC): 0.25 µg/mL (≈ 0.528 µM); MIC ([3]; M. suipneumoniae J2206/183^b, 6 days, 37° C., read-out: MIC): 0.25 µg/mL (≈ 0.528 µM); MIC ([4]; M. suipneumoniae MS 16, 6 days, 37° C., read-out: MIC): 0.1 µg/mL (≈ 0.211 µM); MIC ([5]; M. suipneumoniae TAM 6N, 6 days, 37° C., read-out: MIC): 0.25 µg/mL (≈ 0.528 µM); MIC ([6]; M. suipneumoniae ATCC 25095, 6 days, 37° C., read-out: MIC): 0.25 µg/mL (≈ 0.528 µM); MIC ([7]; M. suipneumoniae NCTC 10110, 6 days, 37° C., read-out: MIC): 0.25 µg/mL (≈ 0.528 µM); MIC ([10]; M. hyosynoviae ATCC 25591, 6 days, 37° C., read-out: MIC): 0.25 µg/mL (≈ 0.528 µM); MIC [11]: 0.05 µg/mL (≈ 0.106 µM); MIC ([18]; Bacillus subtilis, 6633, 18 h): 1 µg/mL (≈ 2.11 µM); MIC [19]: 128 µg/mL (≈ 270 µM); MIC ([25]; 18 h): 1 µg/mL (≈ 2.11 µM); MIC [33]: 10 µg/mL (≈ 21.1 µM); MIC [34]: 0.312 µg/mL (≈ 0.659 µM)
C/C(=C\c1cc(C)on1)C[C@@H]1OC[C@H](C[C@@H]2O[C@H]2[C@@H](C)[C@H](C)O)[C@@H](O)[C@H]1O [Example 33, 5-Methyl-3-(1-normon-2-yl) isoxazole A] | 1 (≈ 2.62 µM) | 1 (≈ 2.62 µM) | 10 (≈ 26.2 µM) | 8 (≈ 21 µM) | > 128 | > 128 | 2 (≈ 5.24 µM) | 4 (≈ 10.5 µM) | 8 (≈ 21 µM) | 8 (≈ 21 µM) | 8 (≈ 21 µM) | > 128 | 8 (≈ 21 µM) | 32 (≈ 83.9 µM) | > 80 | > 80 | > 80 | 0.625 (≈ 1.64 µM) | 1.3 (≈ 3.41 µM) | 2.5 (≈ 6.55 µM) | MIC [1]: 2.5 µg/mL (≈ 6.55 µM); MIC [2]: 2.5 µg/mL (≈ 6.55 µM); MIC [3]: 1 µg/mL (≈ 2.62 µM); MIC [4]: 1 µg/mL (≈ 2.62 µM); MIC [35]: 2.5 µg/mL (≈ 6.55 µM); MIC [5]: 2.5 µg/mL (≈ 6.55 µM); MIC [6]: 1 µg/mL (≈ 2.62 µM); MIC [7]: 2.5 µg/mL (≈ 6.55 µM); MIC [10]: 2.5 µg/mL (≈ 6.55 µM); MIC ([11]; M. dispar NCTC 10125, 6 days, 37° C., read-out: MIC): 0.5 µg/mL (≈ 1.31 µM); MIC ([18]; Bacillus subtilis 6633, 5% chocolated horse blood agar, 18 hours, read-out: MIC): 1 µg/mL (≈ 2.62 µM); MIC ([25]; Strep. spp. 64/848-C, 5% chocolated horse blood agar, 18 hours, read-out: MIC): 32 µg/mL (≈ 83.9 µM); MIC [33]: > 80 µg/mL; MIC [34]: 5 µg/mL (≈ 13.1 µM)
